Experiment: PK of compound of Formula (Ia) after single subcutaneous dose of solution formulations in beagle dogs
Assay type: in vivo
Conditions: male, beagle, dog, plasma, sc, 12 mg/kg, beagle dogs, SC 12 mg/kg
Description: Formulations containing the compound of Formula (Ia), or a pharmaceutically acceptable salt thereof, were prepared as solutions and optionally administered subcutaneously or intramuscularly to rats, rabbits, and/or dogs.
A solution of about 400 mg/mL of the compound of Formula (Ia) having 17.00 w/w % water, 36.40 w/w % PEG 300, 35.20 w/w % of a sodium salt of a compound of Formula (Ia), 5.00 w/w % ethanol, and 6.40 w/w % poloxamer 188 was prepared. The solution was administered subcutaneously to male beagle dogs at a dose level of about 12 mg/kg and male Wistar Han rats at a dose level of about 50 mg/kg. The pharmacokinetic profiles were determined, and the results for dogs are summarized in Table and Table, while the results for rats are summarized in Table and Table below.
A solution of about 500 mg/mL of the compound of Formula (Ia) having 14.06 w/w % water, 30.12 w/w % PEG 300, […] of a sodium salt of a compound of Formula (Ia), 5.00 w/w % ethanol, and 6.40 w/w % poloxamer 188 was prepared. The solution was administered subcutaneously to male beagle dogs at a dose level of about 12 mg/kg and male Wistar Han rats at a dose level of about 50 mg/kg. The pharmacokinetic profiles were determined, and the results for dogs are summarized in Table and Table, while the results for rats are summarized in Table and Table below.
A solution of about 300 mg/mL of the compound of Formula (Ia) having 23.33 w/w % water, 48.99 w/w % PEG 300, 26.47 w/w % of a sodium salt of a compound of Formula (Ia), and 1.21 w/w % poloxamer 188 was prepared. The solution was administered subcutaneously to male beagle dogs at a dose level of about 6 mg/kg and male Wistar Han rats at a dose level of about 50 mg/kg. The pharmacokinetic profiles were determined, and the results for dogs are summarized in Table and Table, while the results for rats are summarized in Table and Table below.
A solution of about 400 mg/mL of the compound of Formula (Ia) having 18.80 w/w % water, 40.25 w/w % PEG 300, 34.38 w/w % of a sodium salt of a compound of Formula (Ia), 5.00 w/w % ethanol, and 1.57 w/w % poloxamer 188 was prepared. The solution was administered subcutaneously to male beagle dogs at a dose level of about 12 mg/kg and male Wistar Han rats at a dose level of about 50 mg/kg. The pharmacokinetic profiles were determined, and the results for dogs are summarized in Table and Table, while the results for rats are summarized in Table and Table below.
A solution of about 500 mg/mL of the compound of Formula (Ia) having 16.29 w/w % water, 34.88 w/w % PEG 300, 41.92 w/w % of a sodium salt of a compound of Formula (Ia), 5.00 w/w % ethanol, and 1.91 w/w % poloxamer 188 was prepared. The solution was administered subcutaneously to male beagle dogs at a dose level of about 12 mg/kg and male Wistar Han rats at a dose level of about 50 mg/kg. The pharmacokinetic profiles were determined, and the results for dogs are summarized in Table and Table, while the results for rats are summarized in Table and Table below.
A solution of about 400 mg/mL of the compound of Formula (Ia) having 20.90 w/w % water, 44.72 w/w % PEG 300, and 34.38 w/w % of a sodium salt of a compound of Formula (Ia) was prepared. The solution was administered subcutaneously to male beagle dogs at a dose level of about 12 mg/kg and male Wistar Han rats at a dose level of about 50 mg/kg. The pharmacokinetic profiles were determined, and the results for dogs are summarized in Table and Table, while the results for rats are summarized in Table and Table below.
A solution of about 400 mg/mL of the compound of Formula (Ia) having 19.90 w/w % water, 42.59 w/w % PEG 300, 34.38 w/w % of a sodium salt of a compound of Formula (Ia), and 3.13 w/w % poloxamer 188 was prepared. The solution was administered subcutaneously to male beagle dogs at a dose level of about 12 mg/kg and male Wistar Han rats at a dose level of about 50 mg/kg. […]

[1] = 400 mg/mL solution W (5.00% ethanol, 1.57% poloxamer 188), Mean n = 3
[2] = 400 mg/mL solution W (5.00% ethanol, 1.57% poloxamer 188), animals #1-#3
[3] = 400 mg/mL solution Y (water, PEG 300), Mean n = 3
[4] = 400 mg/mL solution Y (water, PEG 300), animals #1-#3
[5] = 400 mg/mL solution Z (3.13% poloxamer 188), animals #1-#3
[6] = 400 mg/mL solution Z (3.13% poloxamer 188), Mean n = 3
[7] = 500 mg/mL solution X (5.00% ethanol, 1.91% poloxamer 188), Mean n = 3
[8] = 500 mg/mL solution X (5.00% ethanol, 1.91% poloxamer 188), animals #1-#3

CC(C)(C#Cc1ccc(-c2ccc(Cl)c3c(NS(C)(=O)=O)nn(CC(F)(F)F)c23)c([C@H](Cc2cc(F)cc(F)c2)NC(=O)Cn2nc(C(F)(F)F)c3c2C(F)(F)[C@@H]2C[C@H]32)n1)S(C)(=O)=O [compound of Formula (Ia)]
concentration at 96 h [1]: 43.5 nM | concentration at 168 h [1]: 40.3 nM | concentration at 336 h [1]: 133 nM | concentration at 504 h [1]: 121 nM | concentration at 672 h [1]: 145 nM | concentration at 840 h [1]: 82.4 nM | concentration at 1008 h [1]: 71.7 nM | concentration at 1008 h [2]: 80.7 nM | concentration at 1344 h [1]: 80.7 nM | concentration at 1344 h [2]: 72.3 nM | concentration at 1680 h [1]: 34.9 nM | concentration at 1680 h [2]: 28.8 nM | concentration at 2016 h [1]: 35.3 nM | concentration at 2016 h [2]: 25.8 nM | concentration at 2352 h [1]: 21.9 nM | concentration at 2352 h [2]: 16.8 nM | concentration at 2688 h [1]: 13.3 nM | concentration at 2688 h [2]: 9.87 nM | concentration at 3024 h [1]: 11.4 nM | concentration at 3024 h [2]: 10.5 nM | concentration at 3360 h [1]: 7.4 nM | concentration at 3360 h [2]: 6.7 nM | concentration at 3696 h [1]: 4.7 nM | concentration at 4032 h (400 mg/mL solution W (5.00% ethanol, 1.57% poloxamer 188), 4032 h, Mean n = 3): 5.6 nM | concentration at 4368 h (400 mg/mL solution W (5.00% ethanol, 1.57% poloxamer 188), 4368 h, Mean n = 3): 5.7 nM | concentration at 1 h [3]: 9.61 nM | concentration at 3 h [3]: 17.9 nM | concentration at 8 h [3]: 33.9 nM | concentration at 24 h [3]: 69.9 nM | concentration at 48 h [3]: 77.1 nM | concentration at 72 h [3]: 58.5 nM | concentration at 72 h [4]: 73.6 nM | concentration at 96 h [3]: 58.4 nM | concentration at 96 h [4]: 73.8 nM | concentration at 168 h [3]: 47.8 nM | concentration at 168 h [4]: 41.2 nM | concentration at 336 h [3]: 164 nM | concentration at 336 h [4]: 163 nM | concentration at 504 h [3]: 248 nM | concentration at 504 h [4]: 247 nM | concentration at 672 h [3]: 205 nM | concentration at 672 h [4]: 229 nM | concentration at 840 h [3]: 123 nM | concentration at 840 h [4]: 136 nM | concentration at 1008 h [3]: 95.8 nM | concentration at 1008 h [4]: 119 nM | concentration at 1334 h [3]: 58.2 nM | concentration at 1334 h [4]: 70.5 nM | concentration at 1680 h [3]: 28.4 nM | concentration at 1680 h [4]: 27.2 nM | concentration at 2016 h [3]: 18.6 nM | concentration at 2016 h [4]: 17.7 nM | concentration at 2352 h [3]: 15.4 nM | concentration at 2352 h [4]: 18.1 nM | concentration at 2688 h [3]: 9.47 nM | concentration at 2688 h [4]: 8.23 nM | concentration at 3024 h [3]: 6.15 nM | concentration at 3024 h [4]: 5.55 nM | concentration at 3360 h [3]: 5.11 nM | concentration at 3696 h [3]: 3.76 nM | concentration at 1 h (400 mg/mL solution Z (3.13% poloxamer 188), Mean): 1.58 nM | concentration at 1 h [5]: 1.66 nM | concentration at 3 h [6]: 5.83 nM | concentration at 8 h [6]: 34 nM | concentration at 24 h [6]: 80.5 nM | concentration at 48 h [6]: 61.6 nM | concentration at 72 h [6]: 65.1 nM | concentration at 72 h [5]: 89.8 nM | concentration at 96 h [6]: 70.6 nM | concentration at 168 h [6]: 60.6 nM | concentration at 336 h [6]: 172 nM | concentration at 504 h [6]: 228 nM | concentration at 504 h [5]: 301 nM | concentration at 672 h [6]: 117 nM | concentration at 672 h [5]: 144 nM | concentration at 840 h [6]: 95.7 nM | concentration at 840 h [5]: 107 nM | concentration at 1008 h [6]: 79.9 nM | concentration at 1008 h [5]: 93.3 nM | concentration at 1334 h [6]: 50.2 nM | concentration at 1334 h [5]: 51.6 nM | concentration at 1680 h [6]: 24.2 nM | concentration at 2016 h [6]: 15.2 nM | concentration at 2352 h [6]: 8.85 nM | concentration at 2688 h [6]: 6.06 nM | concentration at 3024 h [6]: 5.61 nM | concentration at 3024 h [5]: 3.65 nM | concentration at 3360 h [6]: 3.41 nM | concentration at 3696 h [6]: 1.75 nM | concentration at 1 h [7]: 12.1 nM | concentration at 3 h [7]: 15.2 nM | concentration at 3 h [8]: 19.4 nM | concentration at 8 h [7]: 26.1 nM | concentration at 8 h [8]: 22.3 nM
